Measurements published in patent US9510598B2, “Nitrogen-containing heterocyclic compounds for plant disease control” (BAYER CROPSCIENCE AG, priority 2012, dated 2016).
Where two headings read alike, the source gives them in different places.

Key:
Septoria tritici = test: In vivo preventive test on Septoria tritici (leaf spot on wheat); conditions: 500 ppm; wheat plants sprayed 24 hours before contamination; grading 21 to 28 days after contamination vs control plants
Experimental: Wheat plants (“Scipion” variety), sown in starter cups on a 50/50 peat soil-pozzolana substrate and grown at 22° C. (12 h)/20° C. (12 h), are treated at the 1-leaf stage (10 cm height) by spraying with the active ingredient prepared as described above. Plants, used as controls, are treated with the mixture of acetone/tween/DMSO/water not containing the active material. After 24 hours, the plants are contaminated by spraying the leaves with an aqueous suspension of cryopreserved Septoria tritici spores (500 000 spores per ml). […] Grading (% of efficacy) is carried out 21 to 28 days after the contamination, in comparison with the control plants.

Sphaerotheca fuliginea = test: In vivo preventive test on Sphaerotheca fuliginea (powdery mildew on cucurbits); conditions: 500 ppm; gherkin plants sprayed 24 hours before contamination; grading 12 days after contamination vs control plants
Experimental: Gherkin plants (“Vert petit de Paris” variety), sown in starter cups on a 50/50 peat soil-pozzolana substrate and grown at 24° C., are treated at the Z11 cotyledon stage by spraying with the active ingredient prepared as described above. Plants, used as controls, are treated with the mixture of acetone/tween/DMSO/water not containing the active material. After 24 hours, the plants are contaminated by spraying the cotyledons with an aqueous suspension of Sphaerotheca fuliginea spores (100 000 spores per ml). The spores are collected from infected plants. […] Grading (% of efficacy) is carried out 12 days after the contamination, in comparison with the control plants.

[1] = type: physicochemical; conditions: for Log P: method [a]: HPLC/LC-MS on reversed phase at pH 2.7, 0.1% formic acid in water and acetonitrile
Botrytis cinerea = test: In vivo preventive test on Botrytis cinerea (grey mould); conditions: 500 ppm; gherkin plants sprayed 24 hours before contamination; grading 4-5 days after contamination vs control plants
Experimental: Gherkin plants (“Vert petit de Paris” variety), sown in starter cups on a 50/50 peat soil-pozzolana substrate and grown at 24° C., are treated at the Z11 cotyledon stage by spraying with the active ingredient prepared as described above. Plants, used as controls, are treated with the mixture of acetone/tween/DMSO/water not containing the active material. After 24 hours, the plants are contaminated by spraying the cotyledons with an aqueous suspension of cryopreserved Botrytis cinerea spores (50 000 spores per ml). The spores are suspended in a nutrient solution composed of 10 g/L of PDB, 50 g/L of D-Fructose, 2 g/L of NH4NO3 and 1 g/L of KH2PO4. The contaminated gherkin plants are incubated at 17° C. and at 80% relative humidity. Grading (% of efficacy) is carried out 4-5 days after the contamination, in comparison with the control plants.

[2] = method [a]: HPLC/LC-MS on reversed phase at pH 2.7, 0.1% formic acid in water / acetonitrile, gradient 10% to 95% acetonitrile
[3] = HPLC on reversed phase columns, method [a]: pH 2.7, 0.1% formic acid in water / acetonitrile, linear gradient 10% to 95% acetonitrile
[4] = linear gradient 10% to 95% acetonitrile
[5] = method [a]: HPLC/LC-MS on reversed phase at pH 2.7, 0.1% formic acid in water / acetonitrile, linear gradient 10% to 95% acetonitrile

| SMILES | log P [1, 3] | % of efficacy (protection) (Septoria tritici) | % of efficacy (protection) (Botrytis cinerea) | other results |
| --- | --- | --- | --- | --- |
| CC1COCCC1NC(=O)C1(C)CC(c2ccc3ncc(Br)cc3c2)=NO1 (mixture of isomers) [compound 309] | – | 86% | – | % of efficacy (protection) (Sphaerotheca fuliginea): 100% |
| CCOCC(C)NC(=O)C1(C)CC(c2ccc3ncc(Br)cc3c2)=NO1 (mixture of isomers) [compound 374] | – | 100% | – | % of efficacy (protection) (Sphaerotheca fuliginea): 100% |
| C#Cc1cnc2ccc(C3=NOC(C)(C(=O)NC(C)CC(=O)OCC)C3)cc2c1 (mixture of isomers) [compound 453] | – | – | – | log P [1, 2]: 2.57[a]; % of efficacy (protection) (Sphaerotheca fuliginea): 88% |
| COCC(C)NC(=O)C1(C)CC(c2ccc3ncc(Br)cc3c2)=NO1 (racemic) [compound 368] | – | 100% | – | log P [1, 2]: 2.54[a]; % of efficacy (protection) (Sphaerotheca fuliginea): 100% |
| CCC(COC)NC(=O)C1(C)CC(c2ccc3ncc(Br)cc3c2)=NO1 (racemic) [compound 377] | – | 100% | – | log P [1, 2]: 2.88[a]; % of efficacy (protection) (Sphaerotheca fuliginea): 98% |
| C#Cc1cnc2ccc(C3=NOC(CC)(C(=O)NC4CC4)C3)cc2c1 (racemic) [compound 439] | – | 93% | – | log P [1, 2]: 2.44[a]; % of efficacy (protection) (Sphaerotheca fuliginea): 78% |
| COC1(C(=O)NC(C)C)CC(c2ccc3ncc(Br)cc3c2)=NO1 (single isomer, unassigned) [compound 284] | 2.58[a] | 100% | – | % of efficacy (protection) (Sphaerotheca fuliginea): 100% |
| CC(C)NC(=O)C1(C)CC(c2ccc3ncc(C#C[Si](C)(C)C)cc3c2)=NO1 (centres unmarked) [Compound No. 150] | – | 100% | – | chromatographic logP ([1]; HPLC reversed phase, pH 2.7, 0.1% formic acid in water / acetonitrile, linear gradient 10% to 95% acetonitrile, calibration with alkan-2-ones, read-out: log P (HCOOH)): 4.41; % of efficacy (protection) (Sphaerotheca fuliginea): 95% |
| C#Cc1cnc2ccc(C3=NOC(C(=O)NCCCOCC)(C(F)F)C3)cc2c1 (centres unmarked) [Compound No. 615] | – | 79% | 95% | chromatographic logP ([1]; pH 2.7): 2.73 |
| CCn1cc(CNC(=O)C2(C(F)(F)F)CC(c3cc4cc(Br)cnc4c(F)c3F)=NO2)c(C)n1 (centres unmarked) [compound 6] | – | 71% | – | Log P [1, 4]: 3.23^[a]; % of efficacy (protection) (Sphaerotheca fuliginea): 89% |
| CCC(C)NC(=O)C1(C)CC(c2cc3cc(Br)cnc3c(F)c2F)=NO1 (centres unmarked) [compound 22] | – | 83% | 93% | Log P [1, 4]: 3.31^[a] |
| CCOCCCNC(=O)C1(C(C)C)CC(c2ccc3ncc(Br)cc3c2)=NO1 (centres unmarked) [compound 64] | – | 70% | 77% | log P [1, 5]: 3.46^[a] |
| CCC1(C(=O)NC2CC2)CC(c2ccc3ncc(Br)cc3c2)=NO1 (centres unmarked) [compound 69] | – | 97% | 99% | log P [1, 5]: 2.75^[a] |
| CCOc1cnc2ccc(C3=NOC(C)(C(=O)NC(C)C)C3)cc2c1 (centres unmarked) [compound 78] | – | 97% | 74% | log P [1, 5]: 2.43^[a] |
| CSc1cnc2ccc(C3=NOC(C)(C(=O)NC(C)C)C3)cc2c1 (centres unmarked) [compound 80] | – | – | – | log P [1, 5]: 2.44^[a]; % of efficacy (protection) (Sphaerotheca fuliginea): 93% |
| C#Cc1cnc2ccc(C3=NOC(C)(C(=O)NCC4(C)CCCO4)C3)cc2c1 (centres unmarked) [compound 128] | – | 83% | 98% | log P [1, 5]: 2.42^[a] |
| CC1(CNC(=O)C2(C)CC(c3ccc4ncc(Br)cc4c3)=NO2)CCCO1 (centres unmarked) [compound 131] | – | 83% | 92% | log P [1, 5]: 2.73^[a] |
| C#Cc1cnc2ccc(C3=NOC(C)(C(=O)NCc4cnc(C)cn4)C3)cc2c1 (centres unmarked) [compound 167] | – | 100% | 100% | log P [1, 5]: 1.98^[a] |
| C#Cc1cnc2ccc(C3=NOC(C)(C(=O)NCc4ccccc4Cl)C3)cc2c1 (centres unmarked) [compound 168] | – | 71% | 99% | log P [1, 5]: 3.23^[a] |
| C#Cc1cnc2ccc(C3=NOC(C)(C(=O)NCc4cnn(-c5ccccc5)c4)C3)cc2c1 (centres unmarked) [compound 186] | – | 71% | 92% | log P [1, 5]: 2.78^[a] |
| C#Cc1cnc2ccc(C3=NOC(C)(C(=O)NCc4cccc(OC(F)(F)F)c4)C3)cc2c1 (centres unmarked) [compound 190] | – | 71% | 89% | log P [1, 5]: 3.48^[a] |
| C#Cc1cnc2ccc(C3=NOC(C)(C(=O)NC4COC4)C3)cc2c1 (centres unmarked) [compound 238] | 1.75^[a] | 93% | 82% | – |
| CC(C)NC(=O)C1(C2CC2)CC(c2ccc3ncc(Br)cc3c2)=NO1 (centres unmarked) [compound 267] | 3.25[a] | 93% | 85% | – |
| CCn1cc(CNC(=O)C2(C3CC3)CC(c3ccc4ncc(Br)cc4c3)=NO2)c(C)n1 (centres unmarked) [compound 268] | 2.73[a] | – | 93% | – |
| CCSc1cnc2ccc(C3=NOC(C)(C(=O)NC(C)C)C3)cc2c1 (centres unmarked) [compound 277] | 2.81[a] | – | – | % of efficacy (protection) (Sphaerotheca fuliginea): 71% |
| CCCOc1cnc2ccc(C3=NOC(C)(C(=O)NCc4cn(CC)nc4C)C3)cc2c1 (centres unmarked) [compound 418] | – | 83% | 79% | log P [1, 2]: 2.46[a] |
| C#Cc1cnc2ccc(C3=NOC(C)(C(=S)NCc4cnc(C)cn4)C3)cc2c1 (centres unmarked) [compound 481] | – | 86% | 97% | log P [1, 2]: 2.84[a] |
| CC1(C(=O)NCC(F)(F)F)CC(c2ccc3ncc(Br)cc3c2)=NO1 (centres unmarked) [compound 493] | – | 97% | 100% | log P [1, 2]: 2.84[a] |
| CCC1(C(=O)NC2CCC2)CC(c2ccc3ncc(Br)cc3c2)=NO1 (centres unmarked) [compound 498] | – | 71% | 92% | log P [1, 2]: 3.31[a] |
| C#Cc1cnc2ccc(C3=NOC(C)(C(=O)NC4CCOCC4)C3)cc2c1 (centres unmarked) [compound 502] | – | 100% | 98% | log P [1, 2]: 2.01[a] |

The next lines start with results.

| log P [1, 3] | SMILES | % of efficacy (protection) (Septoria tritici) | % of efficacy (protection) (Botrytis cinerea) | other results |
| --- | --- | --- | --- | --- |
| 3.41[a] | C=C(C)C1(C(=O)NC(C)C)CC(c2ccc3ncc(Br)cc3c2)=NO1 (centres unmarked) [compound 517] | – | 80% | – |
| 2.75[a] | C#Cc1cnc2ccc(C3=NOC(C)(C(=O)NC(C)(C#N)C4CC4)C3)cc2c1 (centres unmarked) [compound 523] | 97% | 73% | – |
| 2.68[a] | C#Cc1cnc2ccc(C3=NOC(C)(C(=O)NC(C)c4ccc(Cl)nc4)C3)cc2c1 (centres unmarked) [compound 525] | 93% | 100% | – |
| 2.39[a] | CCNC(=O)C1(C)CC(c2ccc3ncc(Br)cc3c2)=NO1 (centres unmarked) [compound 528] | 97% | 99% | – |
| 2.26[a] | C#Cc1cnc2ccc(C3=NOC(C)(C(=O)Nc4cn(CC)nc4C)C3)cc2c1 (centres unmarked) [compound 529] | 100% | 100% | – |
| 2.84[a] | Cc1cnc(CNC(=O)C2(C)CC(c3cc(C)c4ncc(Br)cc4c3)=NO2)cn1 (centres unmarked) [compound 537] | 100% | 100% | – |
| 3.48[a] | CC1(C(=O)NC2CCC2)CC(c2cc(Cl)c3ncc(Br)cc3c2)=NO1 (centres unmarked) [compound 539] | 83% | 100% | – |
| 3.25[a] | CCOCCCNC(=O)C1(C)CC(c2cc(Cl)c3ncc(Br)cc3c2)=NO1 (centres unmarked) [compound 542] | 83% | 100% | – |
| 3.39[a] | CCOCCCNC(=O)C1(OC)CC(c2cc(C)c3ncc(Br)cc3c2)=NO1 (centres unmarked) [compound 597] | 100% | 100% | – |
| 3.19[a] | CCOCCCNC(=O)C1(C(F)F)CC(c2ccc3ncc(I)cc3c2)=NO1 (centres unmarked) [compound 619] | 71% | 73% | – |
